Assay results published in US20210154162A1, “DRUG AND PHARMACEUTICAL COMPOSITION CONTAINING TRANSPORT PROTEIN INHIBITOR, AND USE” (Institute of Basic Medical Sciences Chinese Academy of …, priority 2018, published 2021).

Experiments:
PD-1 [1] = assay: PD-1 expression in patients' peripheral blood T cells treated with supernatants of IFN-γ-treated CD45- tumor cells; assay type: cell-based, human; conditions: CD45- tumor cells treated with IFN-γ with or without 1-MT 24 h; supernatants on T cells 24 h
Description: Moreover, very high PD-1 expression was found in tumor-infiltrating CD8^+ T cells of breast and colon cancer patients (FIG. 7A). […] It was worth noting that Kyn levels were strongly correlated with PD-1 expression in breast and colon cancer patients, but not in healthy people (FIG. 7C). To clarify the cellular source of the Kyn production, CD45^+ immune cells and CD45^− tumor cells isolated from breast tumor tissues (n=10) and colon tumor tissues (n=14) of patients were analyzed. IDO1 expression as well as Kyn levels were dominantly high in CD45^− cells rather than CD45^+ cells. Then, the inventors treated CD45^− tumor cells with IFN-γ in the presence or absence of 1-MT for 24 hours in vitro. The supernatants were used to treat peripheral blood T cells of patients for 24 hours.

OVA-B16 TRCs = assay: OVA-B16 TRC / activated OT-1 T cell co-culture with IDO1 or SLC1A5 blockade (flow cytometry); assay type: cell-based, mouse; conditions: for expression of IFN-γ, TNF-α and CD107a: T cells in co-culture with OVA-B16 TRCs; for PD-1 expression on T cells: co-culture with OVA-B16 TRCs, 24 h; for TRC apoptosis: co-culture with activated OT-1 T cells, 4 h
Description: (7) Scramble- or shIDO1-(Sh1 or Sh2)-OVA B16 TRCs were co-cultured with anti-CD3/CD28 bead-activated OT-1 T cells. After 4 h or 24 h, TRC apoptosis (as shown in FIG. 2G) or PD-1 expression on T cells (as shown in FIG. 2H) was analyzed by flow cytometry. The analysis results were as shown in FIG. 2G and FIG. 2H, respectively.
(9) Scramble- and shSLC1A5-(Sh1 or Sh2)-OVA B16 TRCs were co-cultured with anti-CD3/CD28 bead-activated OT-1 T cells. After 4 h or 24 h, TRC apoptosis (as shown in FIG. 2J) or PD-1 expression (as shown in FIG. 2K) was analyzed by flow cytometry. The analysis results were as shown in FIG. 2J and FIG. 2K, respectively.

PD-1 [2] = assay: OVA-B16 melanoma-bearing mice with adoptively transferred CFSE-labeled OT-1 T cells, PD-1 expression; assay type: in vivo, mouse; conditions: DMF 5 μg/mouse, 6 days; CFSE+ T cells from tumor mass, spleen or lymph nodes
Description: (6) C57BL/6 mice with 5×5 mm OVA-B16 melanoma were adoptively transferred with CFSE-labeled OT-1 CD8^+ T cells (4×10^6 cells/mouse, once every three days) on three occasions. At the same time, some mice were i.p. injected with Kyn (50 μg/mouse, once every two days) for three times. On Day 7 after transferring, CFSE^+CD8^+ T cells were isolated from tumor for flow cytometric analysis of PD-1 expression.
(8) The experimental steps were the same as those of step (7), except that C57BL/6 mice were treated with Kyn, DMF (5 μg/mouse, o.t., twice every day) or Kyn+DMF for 6 days. CFSE^+CD8^+ T cells from tumor were isolated for flow cytometric analysis of PD-1 expression.

OVA-B16 melanoma = OVA-B16 melanoma mice, adoptive OT-1 CD8+ T cell transfer plus DMF or anti-PD-1 antibody; assay type: in vivo; conditions: anti-PD-1 antibody 250 μg/day or DMF 5 μg/mouse twice every day
Description: (13) C57BL/6 mice with 5×5 mm OVA-B16 melanoma were adoptively transferred with or without OT-1 CD8^+ T cells (4×10^6 cells/mouse) once per three days for three times. At the same time, these mice were treated with PBS, DMF (5 μg/mouse, o.t., twice every day) or anti-PD-1 neutralizing antibody (250 μg/day, once every two days, twice) for 20 days. The tumor growth was measured (left) and the long-term survival rate was analyzed (right).

B16 melanoma = assay: B16 melanoma-bearing C57BL/6 mice treated with Kyn, DMF or Kyn+DMF; assay type: in vivo, mouse
Description: (9) C57BL/6 mice with 5×5 mm B16 melanoma were treated with PBS, Kyn (50 μg/mouse, i.p., once every two days), DMF (5 μg/mouse, o.t., once every day) or Kyn+DMF for 6 days. PD-1 expression in CD8^+ T cells isolated from tumors was determined by flow cytometry (n=5). (14) The experimental steps were the same as those of step (9), except that the tumors were weighed. The weighing results were as shown in FIG. 6P. *p<0.05, **p<0.01; #p<0.05, ##p<0.01, as compared with CTL group. The data represented mean±SEM.

PAT4 and SLC7A8 [3] = assay: PAT4 and SLC7A8 expression in CD8+ T cells from breast cancer patients (real-time PCR); assay type: cell-based, human; conditions: Kyn/DMF (20 μM) or Kyn/CH (50 μM), 48 h
Description: (8) CD8^+ T cells from breast cancer patients were treated with PBS, Kyn ([…] (20 μM) or Kyn/CH (50 μM) for 48 h. The expression of PAT4 and SLC7A8 was determined by real-time PCR. The determination results were as shown in FIG. 7I.

PD-1 [4] = assay: ID8 ovarian cancer and H22 hepatocarcinoma ascites peritoneal tumor models; assay type: in vivo, mouse; conditions: DMF
Description: (10) C57BL/6 mice were intraperitoneally injected with 1×10^6 ID8 ovarian cancer cells. After 10 days, mice were intraperitoneally administered with PBS, Kyn, DMF or Kyn+DMF for 6 days. CD8^+ T cells from ascites were isolated and PD-1 expression was determined by flow cytometry (n=5).

PD-1 [5] = assay: PD-1 expression in human CD8+ T cells treated with Kyn and AhR inhibitors (flow cytometry); assay type: cell-based; conditions: 48 h
Description: (4) CD8^+ T cells isolated from PBMCs of patients with breast cancer or lung cancer were activated by anti-CD3/CD28 beads and treated with PBS, Kyn (200 μM) or Kyn/DMF (20 μM) for 48 h. The expression of PD-1 was determined by flow cytometry.
(5) CD8^+ T cells isolated from patients with breast cancer or lung cancer were treated with DMF (20 μM) for 48 h. PD-1 expression was determined by flow cytometry (n=6).

AhR = assay: PD-1 expression in activated CD8+ T cells treated with Kyn plus AhR inhibitor (flow cytometry); assay type: cell-based, mouse; conditions: Kyn plus inhibitor (DMF 10 or 20 μM), 72 h
Description: (4) CD8^+ T cells activated by anti-CD3/CD28 beads were treated with PBS, Kyn or Kyn/DMF (10 or 20 μM) for 72 h. The expression of PD-1 was determined by flow cytometry.

PAT4 and SLC7A8 [6] = assay: PAT4 and SLC7A8 expression in activated CD8+ T cells (real-time PCR, immunostaining); assay type: cell-based, mouse
Description: (2) Activated CD8^+ T cells were treated with PBS or Kyn (200 μM) for 24 h. The expression of PAT4 and SLC7A8 was determined by real-time PCR (left) and immunostaining (right). Bar, […].
(6) The mRNA expression of PAT4 and SLC7A8 was determined in activated CD8^+ T cells treated with PBS, Kyn, Kyn/CH-223191 (10 μM) or Kyn/DMF (20 μM) for 48 h.

PD-1 [7] = assay: Effect of GPNA on PD-1 expression in specific OT-1 CD8+ T cells co-cultured with 3D-cultured OVA-B16 cells; assay type: cell-based, mouse; conditions: 3D-cultured OVA-B16 cells treated 12 h with 10 μM GPNA, co-culture 1:10, 4 h
Description: 3D-cultured OVA-B16 cells were grouped and treated with drug as follows.
(§1) Control group 1 (PBS): culture medium+PBS;
Experimental group 2 (GPNA): culture medium+10 μM GPNA;
After 12 h of treatment, the cells were co-cultured with OT-1 CD8^+ T cells that had been activated for 48 h at a ratio of 1:10, and PD-1 expression in CD8^+ T cells was determined by flow cytometry after 4 h.

SLC1A5 [8] = target: T1, SLC1A5 (Mus musculus, UniProt P51912); assay: Tryptophan levels in B16 TRC lysates (ELISA); assay type: cell-based
T1 construct: endogenous in cells; host or cells: B16 tumor-repopulating cells (TRCs)
T1 sequence (P51912 1-553): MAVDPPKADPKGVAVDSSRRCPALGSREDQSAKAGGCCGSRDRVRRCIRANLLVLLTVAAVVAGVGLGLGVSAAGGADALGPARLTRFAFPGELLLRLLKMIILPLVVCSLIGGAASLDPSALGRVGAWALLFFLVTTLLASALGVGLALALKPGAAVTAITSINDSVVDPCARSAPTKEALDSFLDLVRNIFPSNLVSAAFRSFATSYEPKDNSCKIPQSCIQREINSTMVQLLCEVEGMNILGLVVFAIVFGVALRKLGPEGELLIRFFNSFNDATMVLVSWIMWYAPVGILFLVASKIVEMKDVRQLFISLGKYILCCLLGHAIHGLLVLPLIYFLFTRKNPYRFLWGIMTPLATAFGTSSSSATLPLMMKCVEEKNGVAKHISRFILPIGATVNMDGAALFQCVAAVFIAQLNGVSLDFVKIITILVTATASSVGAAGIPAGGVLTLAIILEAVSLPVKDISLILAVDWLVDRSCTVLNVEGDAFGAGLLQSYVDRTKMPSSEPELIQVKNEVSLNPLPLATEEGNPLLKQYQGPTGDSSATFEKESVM
Description: (8) Tryptophan levels in cell lysates were determined by ELISA in scramble- and shSLC1A5-(Sh1 or Sh2)-B16 TRCs in the presence or absence of IFN-γ for 24 h.

[9] = target: T2, tryptophan transporter SLC1A5 (Mus musculus, UniProt P51912); assay: Effect of GPNA on the uptake of tryptophan by tumor cells (ELISA of lysates); assay type: cell-based; conditions: OVA-B16 cells, 50 ng/mL IFN-γ + 10 μM GPNA, 24 h
T2 construct: endogenous in cells; host or cells: mouse OVA-B16 melanoma cells
T2 sequence (P51912 1-553): T1 sequence (P51912 1-553)
Description: Mouse OVA-B16 cells were cultured in RPMI-1640 culture medium in vitro and were group and treated as follows.
as §1
Control group 2 (GPNA): culture medium+10 μM GPNA;
Experimental group 3 (IFN-γ): culture medium+50 ng/mL IFN-γ;
Experimental group 4 (IFN-γ+GPNA): culture medium+50 ng/mL IFN-γ+10 μM GPNA;
The cells in each group were collected after 24 h and ultrasonically broken, the concentrations of tryptophan in the lysates were determined by ELISA, and BCA protein assay was carried out at the same time.

IDO1 = IDO1 expression in TRCs upon IFN-γ; assay type: cell-based
PD-L1 = PD-L1 expression on TRCs upon IFN-γ; assay type: cell-based, mouse
SLC1A5 [10] = assay: SLC1A5 expression in TRCs upon IFN-γ; assay type: cell-based; conditions: IFN-γ treatment, mRNA and protein levels
B16 TRCs = assay: Kyn release by IFN-γ-treated tumor cells (ELISA of supernatants); assay type: cell-based, mouse; conditions: IFN-γ 10 ng/ml, 24 h
Description: (3) OVA-B16 cells grown in culture flask or OVA-B16 TRCs were treated with IFN-γ (10 ng/ml) for 24 h. Kyn levels in the supernatants were determined by ELISA.

Cn1cc(C[C@@H](N)C(=O)O)c2ccccc21 [1-MT]
PD-1 upregulation in CD8+ T cells by supernatants (PD-1 [1]): blocked | expression of IFN-γ, TNF-α and CD107a (OVA-B16 TRCs): upregulation | PD-1 expression on T cells (OVA-B16 TRCs): downregulation | TRC apoptosis (OVA-B16 TRCs): more TRC apoptosis

COc1ccc(-c2cc(=O)c3ccccc3o2)cc1OC [DMF, 3′,4′-dimethoxyflavone]
Kyn-triggered upregulation of PD-1 expression in tumor-specific CD8+ T cells (PD-1 [2]): abrogated | therapeutic effect of adoptively transferred OVA-specific CD8+ T cells (tumor growth, survival) (OVA-B16 melanoma): equal treatment efficiency | accelerated tumor growth seen with Kyn-treatment (B16 melanoma; Kyn+DMF): reversed | Kyn-induced PD-1 upregulation in CD8+ T cells isolated from tumor, spleen or lymph nodes (B16 melanoma; Kyn+DMF (5 μg/mouse), 6 days): blocked | Kyn-induced upregulation of SLC7A8 and PAT4 (PAT4 and SLC7A8 [3]): blocked | expression pattern of PD-1, IFN-γ and TNF-α (PD-1 [4]): reversed | Kyn-induced PD-1 upregulation (PD-1 [5]; human CD8+ T cells, Kyn plus inhibitor (DMF 20 μM)): inhibited | PD-1 expression (PD-1 [5]; patients' CD8+ T cells, DMF alone 20 μM): directly downregulate PD-1 expression | Kyn-dependent upsurge of PD-1 (AhR): thwarted | Kyn-induced upregulation of SLC7A8 and PAT4 (PAT4 and SLC7A8 [6]; activated CD8+ T cells, Kyn/CH-223191 (10 μM) or Kyn/DMF (20 μM), 48 h): effectively inhibiting

N[C@@H](CCC(=O)Nc1ccc([N+](=O)[O-])cc1)C(=O)O [GPNA, L-γ-Glutamyl-p-nitroanilide]
PD-1 expression in specific OT-1 CD8+ T cells (PD-1 [7]): significantly inhibit | intracellular levels of tryptophan in TRCs (SLC1A5 [8]): decreased | uptake of tryptophan by tumor cells [9]: significantly reduced | expression of IFN-γ, TNF-α and CD107a (OVA-B16 TRCs): upregulation | PD-1 expression on T cells (OVA-B16 TRCs): downregulation | TRC apoptosis (OVA-B16 TRCs): more TRC apoptosis

IFN-γ: recombinant IFN-γ purchased from R & D Systems
IDO1 expression (IDO1): further upregulated | expression of PD-L1 (PD-L1): upregulated | expression of SLC1A5 (SLC1A5 [10]): further augmented | Kyn levels in the supernatants (B16 TRCs): release high levels of Kyn | expression of PAT4 and SLC7A8 (PAT4 and SLC7A8 [6]; CD8+ T cells, IFN-γ treatment): did not affect
